In patent publication US20010010919A1 (priority 1998, published 2001):
Entries after “also recorded” stand apart in the source; their conditions may differ.

Tests used:
[1] = molecular target: T1, novel mammalian opioid receptor (LC132, OFQR) (Rattus norvegicus, UniProt P35370); format: binding
T1 construct: The entire coding region of the receptor cDNA insert was subcloned into the RcRVS vector; expressed in transfected cells

[2] = tested on: untransfected COS-7 and Ltk^− cells; experiment: Radioligand binding to membranes of untransfected cells (control); details: untransfected cell membranes
[3] = tested on: mice; experiment: Acetic acid abdominal constriction (AC, writhing) test; format: in vivo, mouse; details: for effect on SIA (decreased number of abdominal constrictions): OFQ 2.5 nmole icv, NAL sc
Protocol: This test is an extremely sensitive measure of tonic, chemically-induced pain stimulus.
The AC assay was a modification of the technique originally described by Koster et al. Mice (N=9-15 per group) were acclimated to individual cylindrical Plexiglass observation chambers for >30 minutes. […] A separate group of Sal-treated mice received no icv injection (None). Between 5 and 10 minutes later, all mice were given an intraperitoneal (ip) injection of 0.9% acetic acid and placed back in their observation chambers. For the next 30 minutes, the number of abdominal constrictions (lengthwise stretches of the torso with a concomitant concave arching of the back) were counted and recorded. Four mice in separate chambers were observed simultaneously by a single experimenter blind to drug condition.

[4] = tested on: Swiss-Webster mice; experiment: Tail-withdrawal (TW) test 46° C., stress-induced analgesia; format: in vivo, mouse; details: for hyperalgesia: 46° C. TW test; for effect on the 4 s post-injection increase in TW latency (stress-induced analgesia): OFQ 10 nmole icv, naloxone 1 mg/kg sc
Protocol: The latency to respond to the heat stimulus by a vigorous flexion of the tail was measured to the nearest 0.1 s by an experienced observer blind to the drug condition of the animal. Mice were lightly restrained in a cloth/cardboard holder during testing. In the absence of a withdrawal reflex or other indication of distress, the tail was removed from the water after a cut-off latency of 15 s. To improve accuracy, three separate TW latency determinations, separated by 20 s, were made and averaged at each test. […] Because there were no changes in post-injection TW latencies in any group with repeated testing at 10, 20 and 30 min post-injection, data from these time points were pooled.

[5] = tested on: DBA/2J mice; experiment: Morphine hypothermia and Straub tail, core body temperature
[6] = tested on: Swiss-Webster mice; experiment: Reversal of morphine analgesia, 49° C. TW test; format: in vivo, mouse
[7] = tested on: mice; experiment: Nociception in mice (hot plate, toe- and tail-pinch) after icv or intrathecal administration; format: in vivo, mouse
[8] = Meunier et al., Nature 377,532-535 (1995); cited from earlier work
[9] = tested on: C57BL/6J mice; experiment: Precipitation of withdrawal in morphine dependent mice (withdrawal jumping); format: in vivo, mouse
[10] = tested on: mice; experiment: Open-field observation and locomotor activity after icv administration; format: in vivo, mouse
Protocol: For these experiments, the peptide was administered intracerebroventricularly (icv) and intrathecally (it) in mice. Immediately after peptide administration, mice were placed in transparent boxes in groups of three, and behavioral signs recorded. Emphasis was placed on signs indicative of depressant, stimulant and autonomic effects of the peptide (as described by Irwin, 1968, Psychopharmacologia 13: 222). […] The effects of the peptide on horizontal and vertical locomotor activity was measured using Digiscan Animal Activity Monitors (Omnitech, Columbus, Ohio). The values for horizontal and vertical locomotor activity represent the total number of interruptions of the horizontal and vertical sensors during the first 10 minutes following administration of the peptide. Data are shown as the mean±standard error of the mean.

T1 sequence (P35370 whole entry): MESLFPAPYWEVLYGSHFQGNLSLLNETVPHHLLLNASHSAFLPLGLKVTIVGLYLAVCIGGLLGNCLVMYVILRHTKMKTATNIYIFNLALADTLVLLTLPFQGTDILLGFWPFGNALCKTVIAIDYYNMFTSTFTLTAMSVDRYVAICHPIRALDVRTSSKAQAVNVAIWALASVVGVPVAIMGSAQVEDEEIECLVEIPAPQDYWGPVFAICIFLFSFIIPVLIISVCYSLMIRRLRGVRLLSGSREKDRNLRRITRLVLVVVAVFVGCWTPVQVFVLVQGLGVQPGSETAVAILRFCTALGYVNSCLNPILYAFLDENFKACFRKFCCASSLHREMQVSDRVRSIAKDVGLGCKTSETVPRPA

## β-endorphin: endogenous opioid peptide, 125I-labeled
[1]
  specific binding of the radioactively-labeled ligand: no specific binding

## CCC(=O)C(CC(C)N(C)C)(c1ccccc1)c1ccccc1 (centres unmarked) [methadone]
[2]
  endogenous binding of the radiolabeled ligand: no or negligible amounts of endogenous methadone binding
[1]
  Bmax: 400-450 fentomoles/μg protein
  specific binding of the radioactively-labeled ligand: specific binding was found

## C[C@@H](NC(=O)[C@@H](N)Cc1ccc(O)cc1)C(=O)NCC(=O)N(C)[C@@H](Cc1ccccc1)C(=O)NCCO [DAMGO, Tyr-DAla-Gly-Met-Phe-Gly-ol]
[1]
  specific binding of the radioactively-labeled ligand: no specific binding

## c[D-penicillamine^2, D-penicillamine^5]enkephalin [DPDPE]
[1]
  specific binding of the radioactively-labeled ligand: no specific binding

## CN1CC[C@]23c4c5ccc(O)c4O[C@H]2[C@@H](O)CC[C@H]3[C@H]1C5 [dihydromorphine]
[1]
  specific binding of the radioactively-labeled ligand: no specific binding

## C=CCN1CC[C@]23c4c5ccc(O)c4O[C@H]2C(=O)CC[C@@]3(O)[C@H]1C5 [naloxone, reference compound]
[3]
  effect on SIA (decreased number of abdominal constrictions): reversed
[2]
  endogenous binding of the radiolabeled ligand: endogenous low levels of specific
[4]
  hyperalgesia: In no case did any mouse treated with OFQ or naloxone exhibit hyperalgesia
  effect on the 4 s post-injection increase in TW latency (stress-induced analgesia): attenuated

## CN1CC[C@]23c4c5ccc(O)c4O[C@H]2[C@@H](O)C=C[C@H]3[C@H]1C5 [morphine]
[5]; morphine 20 mg/kg
  Straub tail production: produced Straub tail
[5]; morphine 20 mg/kg i.p.
  decrease in body temperature: 6 °C
[6]; morphine sulfate 5 mg/kg s.c.
  analgesia produced: profound analgesia
  duration of analgesia: about 2 hours
  time of peak analgesia post-injection: 30 min

## CC(C)C[C@H](NC(=O)[C@H](CCCCN)NC(=O)[C@H](CCCNC(=N)N)NC(=O)[C@H](C)NC(=O)[C@H](CO)NC(=O)[C@H](CCCCN)NC(=O)[C@H](CCCNC(=N)N)NC(=O)[C@H](C)NC(=O)CNC(=O)[C@@H](NC(=O)[C@H](Cc1ccccc1)NC(=O)CNC(=O)CNC(=O)[C@@H](N)Cc1ccccc1)[C@@H](C)O)C(=O)N[C@@H](C)C(=O)N[C@@H](CC(N)=O)C(=O)N[C@@H](CCC(N)=O)C(=O)O [OFQ]
[5]; 5 and 10 nmole i.c.v., 60-90 minutes post-MOR injection
  reversal of 20 mg/kg MOR hypothermia: significantly reversed
[5]; 5 or 10 nmole i.c.v.
  effect of the substance itself on body temperature: did not affect body temperature
[5]; at least 5 nmole OFQ icv
  elimination of morphine Straub tail: effectively eliminated Straub tail in the vast majority of animals
  time to elimination of Straub tail following icv injection: 1 to 2 min
[7]; all doses tested
  toe- and tail-pinch reflexes: normal toe- and tail-pinch reflexes
[7]; icv, hot plate 58° C., cutoff 60 sec
  analgesic effect in hot plate test: little analgesic effect
[7]; intrathecally 2.5-10 nmole/4 μL/animal
  analgesic effect, intrathecal: No analgesic effect
[8]
  effect on pain sensitivity in tail flick and hot-plate assays: induces hyperalgesia
[9]; OFQ 0.1-10 nmole i.c.v., 20-min testing period
  precipitated withdrawal syndrome (withdrawal jumping): equally effective in the precipitation of withdrawal; also recorded: unequivocal, albeit modest in comparison to that produced by systemic naloxone
[9]; OFQ i.c.v.
  other withdrawal symptoms: wet-dog shakes and ptosis, were observed
[3]; 2.5 nmole icv, within 30 minutes
  inhibition of the analgesic effect of morphine: pharmaceutically sufficient to inhibit the analgesic effect of morphine
[3]
  effect on SIA (decreased number of abdominal constrictions): reversed
[10]; icv 0.1-10 nmole/2 μL/mouse, first 10 minutes
  horizontal and vertical locomotion: decrease of both horizontal and vertical locomotion
[10]; larger doses, above 1 nmole/2 μL/mouse
  open-field behavioral signs: profound influence on locomotor activity, as well as a decrease in muscle tone, a loss of righting reflex, and ataxia
[6]; OFQ 2.5-25 nmole i.c.v.
  reversal of morphine analgesia: reversed this analgesia in a dose-dependent manner
[6]; i.c.v. in a 2.5 μl volume, linear regression
  ED50, 50% inhibition of 5 mg/kg morphine analgesia: 7.5 nmol
[4]
  hyperalgesia: no evidence of hyperalgesia
  effect on the 4 s post-injection increase in TW latency (stress-induced analgesia): attenuated

## CCC12CCN(CC3(O)CC3)C(Cc3ccc(O)cc31)C2(C)C (centres unmarked) [bremacozine]
[1]
  specific binding of the radioactively-labeled ligand: no specific binding
